Patent US20120029187A1, “HALOALKYLSULFONANILIDE DERIVATIVE” (Nissan Chemical Industries, Ltd., priority 2009, published 2012)

Experiments:
Format in all cases: in vivo
[1] = test system: ducksalad; assay: Test Example 1: herbicidal effects in preemergence treatment under submerged conditions; conditions: dose 2.52 g/a
Summary of the method: (§1)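 Scoring 0 (<5% mortality) to 5 (≥90%) was done three weeks after preemergence application to the water surface of submerged (4 cm) alluvial soil, doses given as g per are. Weeds were seeded and 2.5-leaf rice transplanted on the treatment day; greenhouse at 25–30 °C.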

[2] = test system: bulrush; assay: as above; conditions: dose 2.52 g/a
Summary of the method: as §1

[3] = test system: barnyardgrass; assay: as above; conditions: dose 2.52 g/a
Summary of the method: as §1

[4] = test system: common ragweed; assay: Test Example 4: herbicidal effect in foliage treatment; conditions: dose 3.2 g/a, three weeks after application
Summary of the method: (§2)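 Doses are given in grams per are of applied compound, sprayed as water-diluted emulsifiable concentrate onto foliage of 14-day-old plants grown at 25 to 30° C. Herbicidal activity was assessed visually on a rating scale after three weeks.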

[5] = test system: Italian ryegrass; assay: as above; conditions: dose 3.2 g/a, three weeks after application
Summary of the method: as §2

[6] = test system: common chickweed; assay: as above; conditions: dose 3.2 g/a, three weeks after application
Summary of the method: as §2

[7] = test system: large crabgrass; assay: as above; conditions: dose 3.2 g/a, three weeks after application
Summary of the method: as §2

[8] = test system: redroot pigweed; assay: as above; conditions: dose 3.2 g/a, three weeks after application
Summary of the method: as §2

[9] = test system: velvetleaf; assay: as above; conditions: dose 3.2 g/a, three weeks after application
Summary of the method: as §2

[10] = test system: common lambsquater; assay: as above; conditions: dose 3.2 g/a, three weeks after application
Summary of the method: as §2

[11] = test system: water foxtail; assay: as above; conditions: dose 3.2 g/a, three weeks after application
Summary of the method: as §2

[12] = test system: posumbu knotweed; assay: as above; conditions: dose 3.2 g/a, three weeks after application
Summary of the method: as §2

[13] = test system: giant foxtail; assay: as above; conditions: dose 3.2 g/a, three weeks after application
Summary of the method: as §2

[14] = test system: beadstraw; assay: as above; conditions: dose 3.2 g/a, three weeks after application
Summary of the method: as §2

[15] = test system: barnyardgrass; assay: as above; conditions: dose 3.2 g/a, three weeks after application
Summary of the method: as §2

[16] = test system: transplanted rice; assay: Test Example 1: preemergence treatment under submerged conditions, effect on crop; conditions: dose 2.52 g/a
Summary of the method: as §1

[17] = test system: ducksalad; assay: Test Example 2: herbicidal effects during the vegetation period under submerged conditions; conditions: treatment during the vegetation period under submerged conditions; dose 2.52 g/a
Summary of the method: (§3)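 Barnyardgrass, bulrush and ducksalad were co-sown in alluvial soil flooded to 4 cm and grown in a greenhouse at 25 to 30° C. At the 1- or 2-leaf stage, water-diluted emulsifiable concentrates went onto the water surface at set doses (g/a). Herbicidal effect was scored three weeks later on a graded scale.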

[18] = test system: bulrush; assay: as above; conditions: treatment during the vegetation period under submerged conditions; dose 2.52 g/a
Summary of the method: as §3

[19] = test system: barnyardgrass; assay: as above; conditions: treatment during the vegetation period under submerged conditions; dose 2.52 g/a
Summary of the method: as §3

[20] = test system: common ragweed; assay: Test Example 3: herbicidal effects in soil treatment; conditions: dose 3.2 g/a
Summary of the method: (§4)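 Seeds were sown in sterilized diluvial soil and covered with about 1.5 cm of soil. Compounds, formulated as emulsifiable concentrates and diluted with water, were sprayed evenly over the soil surface at set doses in g/a. Herbicidal effect was scored on a rating scale three weeks later.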

[21] = test system: Italian ryegrass; assay: as above; conditions: dose 3.2 g/a
Summary of the method: as §4

[22] = test system: common chickweed; assay: as above; conditions: dose 3.2 g/a
Summary of the method: as §4

[23] = test system: large crabgrass; assay: as above; conditions: dose 3.2 g/a
Summary of the method: as §4

[24] = test system: redroot pigweed; assay: as above; conditions: dose 3.2 g/a
Summary of the method: as §4

[25] = test system: velvetleaf; assay: as above; conditions: dose 3.2 g/a
Summary of the method: as §4

[26] = test system: common lambsquater; assay: as above; conditions: dose 3.2 g/a
Summary of the method: as §4

[27] = test system: water foxtail; assay: as above; conditions: dose 3.2 g/a
Summary of the method: as §4

[28] = test system: posumbu knotweed; assay: as above; conditions: dose 3.2 g/a
Summary of the method: as §4

[29] = test system: giant foxtail; assay: as above; conditions: dose 3.2 g/a
Summary of the method: as §4

[30] = test system: beadstraw; assay: as above; conditions: dose 3.2 g/a
Summary of the method: as §4

[31] = test system: barnyardgrass; assay: as above; conditions: dose 3.2 g/a
Summary of the method: as §4

## CCC(=O)N(c1ccccc1CN1COC(C)(CC(F)(F)F)CC1=O)S(=O)(=O)C(F)(F)F (stereo not shown) [II-52]
[1]
  C: ducksalad, herbicidal effect (evaluation scale 0-5): 5 (mortality of 90% or above (nearly complete death))
[2]
  B: bulrush, herbicidal effect (evaluation scale 0-5): 5 (mortality of 90% or above (nearly complete death))
[3]
  A: barnyardgrass, herbicidal effect (evaluation scale 0-5): 5 (mortality of 90% or above (nearly complete death))
[4]
  J: common ragweed, herbicidal effect: 3 (mortality of at least 40% and less than 70%)
[5]
  H: Italian ryegrass, herbicidal effect: 4 (mortality of at least 70% and less than 90%)
[6]
  N: common chickweed, herbicidal effect: 4 (mortality of at least 70% and less than 90%)
[7]
  D: large crabgrass, herbicidal effect: 4 (mortality of at least 70% and less than 90%)
[8]
  K: redroot pigweed, herbicidal effect: 0 (mortality of less than 5% (almost ineffective))
[9]
  I: velvetleaf, herbicidal effect: 3 (mortality of at least 40% and less than 70%)
[10]
  L: common lambsquater, herbicidal effect: 4 (mortality of at least 70% and less than 90%)
[11]
  G: water foxtail, herbicidal effect: 5 (mortality of 90% or above (nearly complete death))
[12]
  M: posumbu knotweed, herbicidal effect: 1 (mortality of at least 5% and less than 20%)
[13]
  E: giant foxtail, herbicidal effect: 5 (mortality of 90% or above (nearly complete death))
[14]
  O: beadstraw, herbicidal effect: 5 (mortality of 90% or above (nearly complete death))
[15]
  A: barnyardgrass, herbicidal effect: 5 (mortality of 90% or above (nearly complete death))
[16]
  a: transplanted rice, effect on crop (evaluation scale 0-5): 0 (mortality of less than 5% (almost ineffective))
[17]
  C: ducksalad, herbicidal effect (evaluation scale 0-5): 5 (mortality of 90% or above (nearly complete death))
[18]
  B: bulrush, herbicidal effect (evaluation scale 0-5): 5 (mortality of 90% or above (nearly complete death))
[19]
  A: barnyardgrass, herbicidal effect (evaluation scale 0-5): 5 (mortality of 90% or above (nearly complete death))
[20]
  J: common ragweed, herbicidal effect (evaluation scale 0-5): 5 (mortality of 90% or above (nearly complete death))
[21]
  H: Italian ryegrass, herbicidal effect (evaluation scale 0-5): 5 (mortality of 90% or above (nearly complete death))
[22]
  N: common chickweed, herbicidal effect (evaluation scale 0-5): 5 (mortality of 90% or above (nearly complete death))
[23]
  D: large crabgrass, herbicidal effect (evaluation scale 0-5): 5 (mortality of 90% or above (nearly complete death))
[24]
  K: redroot pigweed, herbicidal effect (evaluation scale 0-5): 1 (mortality of at least 5% and less than 20%)
[25]
  I: velvetleaf, herbicidal effect (evaluation scale 0-5): 5 (mortality of 90% or above (nearly complete death))
[26]
  L: common lambsquater, herbicidal effect (evaluation scale 0-5): 4 (mortality of at least 70% and less than 90%)
[27]
  G: water foxtail, herbicidal effect (evaluation scale 0-5): 5 (mortality of 90% or above (nearly complete death))
[28]
  M: posumbu knotweed, herbicidal effect (evaluation scale 0-5): 5 (mortality of 90% or above (nearly complete death))
[29]
  E: giant foxtail, herbicidal effect (evaluation scale 0-5): 5 (mortality of 90% or above (nearly complete death))
[30]
  O: beadstraw, herbicidal effect (evaluation scale 0-5): 0 (mortality of less than 5% (almost ineffective))
[31]
  A: barnyardgrass, herbicidal effect (evaluation scale 0-5): 5 (mortality of 90% or above (nearly complete death))
